Molecular target: T1, Pho81 (Pho81SPX-GFP; CnPho81) (Cryptococcus neoformans, UniProt J9VLD1)
T1 construct: gene CNAG_02541; full-length Pho81 (N-terminal SPX, ankyrin repeat and GDE domains) with C-terminal GFP, expressed from the GDE2 promoter in C. neoformans H99; whole cell lysate, endogenous Pho80/Pho85/Pcl6/7 present
Test: affinity capture from cell lysate on 5-PCP-IP5-conjugated resin, anti-GFP Western blot
Format: biochemical
Details: binds; resin-immobilised analog of 5-PP-IP5; Pi-conjugated resin as control; 50 mM Tris pH 7.5, 150 mM NaCl, 1 mM EDTA, 4 °C, 2 h; SPX domain lysine surface cluster

In the case of `O=P(O)(O)CP(=O)(O)O[C@H]1[C@H](OP(=O)(O)O)[C@@H](OP(=O)(O)O)[C@@H](OP(=O)(O)O)[C@@H](OP(=O)(O)O)[C@@H]1OP(=O)(O)O` [5-PCP-IP5], the “affinity capture from cell lysate on 5-PCP-IP5-conjugated resin, anti-GFP Wester” value is reported as “native Pho81 binds to the 5-PCP-IP5, but not to the Pi, resin”.
